# Reference: patent US20240238268A1, “TREATMENTS AND METHODS FOR TREATING ALZHEIMER'S DISEASE” (Board of Supervisors of Louisiana State University and …, priority 2021, published 2024)
# How the values were obtained:
# Format in all cases: in vivo, mouse
# aged 3xTg-AD female mice [1] = test: Novel Object Recognition
# Protocol: FIGS. 20A and 20B are two graphs showing PRMT4 inhibitor (TP-064) or AAV knockdown of PRMT4 improved functional learning/memory in aged 3xTg-AD female mice. […] C57 but increased with administration of TP-064 (30 mg/kg, 7 days, IP). In FIG. 20B, in Novel Object Recognition, aged 3xTg-AD female mice had fewer number of entries in the novel zone v. C57. Treatment with TP-064 or brain-specific AAV knockdown of PRMT4 increased the number of entries. T-maze and novel object recognition test were utilized to analyze working/short-term and reference/long-term memory, respectively. * p<0.05 v. C57 via one-way ANOVA with Tukey's post-hoc analyses.
# aged 3xTg-AD female mice [2] = test: BBB permeability: Evan's blue brain penetration; conditions: formamide extraction of whole brain
# Description: FIG. 15 is a graph showing blood brain barrier permeability was impaired in aged 3xTg-AD female mice but reversed with TP-064. […] Formamide extraction of Evan's blue infused-whole-brain was quantified. * p<0.05 compared to C57, #p<0.05 compared to 3xTg-AD, evaluated by one-way ANOVA with Tukey's post-hoc analysis.
# 3-nitrotyrosine = test: 3-Nitrotyrosine ELISA of brain lysate; conditions: combined cortex and hippocampus lysate
# Protocol: OxiSelect™ 3-Nitrotyrosine ELISA: Protein was extracted from dissected tissue in an extraction buffer consisting of T-PER® Tissue Protein Extraction Reagent (Cat. No. 78510, Thermo Fischer Scientific, Waltham, MA) and Halt™ Protease Inhibitor Cocktail (Cat. No. 87785, Thermo Fischer Scientific, Waltham, MA). Following homogenization and centrifugation (10,000×g, 5 min, 4° C.), protein concentration was determined in the supernatant using DC Protein Assay (Cat. No. 5000112, Bio-Rad Laboratories, Hercules, California) according to manufacturer instructions. Levels of 3-Nitrotyrosine were determined using OxiSelect™ 3-Nitrotyrosine ELISA (Cat. No. STA-305, Cell Biolabs Inc., San Diego, CA). Briefly, 50 μL of protein lysate was added to a pre-coated 96-well plate and incubated at room temperature (20° C.) for 10 min on an orbital shaker. 50 μL of anti-nitrotyrosine antibody (1:1000, Cell Biolabs Inc., San Diego, CA) was added to each well and plate was incubated for 1 hr at 20° C. Wells were washed 3 times using assay wash buffer, and 100 μL of secondary antibody-enzyme conjugate (1:1000, Cell Biolabs Inc., San Diego, CA) was added to each well. Plate was then incubated for 1 hr at 20° C. on an orbital shaker. […] The standard curve was provided by the manufacturer, and all sample concentrations were determined from the standard curve values. Changes in absorbance were measured at 450 nm. […]
# aged 3xTg-AD female mice [3] = test: Neurovascular coupling: microvessel diameter after whisker stimulation, two-photon laser scanning microscopy; conditions: TP-064 30 mg/kg for 7 days, IP or PRMT4-AAV knockdown
# Protocol: FIGS. 11A-11D show neurovascular coupling dysfunction was alleviated with specific PRMT4 inhibitor (TP-064) or PRMT4-AAV knockdown in aged 3xTg-AD female mice. In FIG. 11A, neurovascular coupling was evaluated based on vascular tonicity changes in response to whisker stimulation (30 sec, 4 Hz) via two-photon laser scanning microscopy. FITC-dextran was injected IV for visualization of cerebral microvessels (Z=100 μm depth) in the cortex. In FIG. 11B, vessel diameters were measured before/after whisker stimulation, and before/after TP-064 (30 mg/kg for 7 days, IP) or PRMT4-AAV knockdown.
# Determining if inhibition of PRMT4 can promote neurovascular coupling. […] One reason for this is the loss of neurovascular coupling is associated with the early progression of AD. Whisker-barrel stimulation is a well-established model for examining neurovascular coupling [Rodgers (our in-house collaborator) et al., 2006, 2008, 2009]. The inventors measured cortical microvessel vascular reactivity with two-photon laser scanning microscopy while evoking 30 sec of whisker stimulation in mice. Based on the inventors' findings that aged 3xTg-AD female mice had enhanced PRMT4 expression (FIGS. 2A-3C and 5A-5D), the inventors' results evidence that aged 3xTg-AD female mice presented decreased cortical microvessel diameter as compared to aged 3xTg-AD male mice 30 see (4 Hz) after whisker stimulation. […]
compound,measurement,setting,value
"CNCCN1CCC(c2cc(CN(C)C(=O)c3cccc(Oc4ccccc4)c3)ccn2)CC1 [TP-064, N-Methyl-N-((2-(1-(2-(methylamino)ethyl)piperidin-4-yl)pyridin-4-yl)methyl)-3-phenoxybenzamide]",number of entries in the novel zone,aged 3xTg-AD female mice [1],increased
same,brain penetration of Evan's blue (BBB leakage),aged 3xTg-AD female mice [2],lower brain penetration of Evan's blue
same,3-nitrotyrosine level,3-nitrotyrosine; 3xTg-AD mice,110 ± 27.2 µM
same,3-nitrotyrosine level,3-nitrotyrosine; C57BL/6J mice,86.9 ± 7.71 µM
same,microvessel diameter after whisker stimulation,aged 3xTg-AD female mice [3],increased
